Experiments:
[1] = molecular target: NGF (Homo sapiens, UniProt P01138); conditions: for ka2 / kd1 / kd2 / ka1: two-state kinetic model, 25° C., NGF 11-185 nM; for ka1: standard errors in parentheses
Procedure: Affinity measurements were performed using a Biacore T100 system (GE Heathcare). The CM5 sensor chip was used for all measurements. At first, the instrument was primed with HBS-EP+ (GE Heathcare) buffer. Then, 700RU of streptavidin was immobilized on all flow cells. A 1:1 mixture of 0.4 M EDC and 0.1 M NHS was used to activate the flow cells, and 0.008 mg/mL streptavidin solution reconstituted in Acetate 5.0 buffer (GE Healthcare) was injected. Blocking of the remaining activated groups was done with a 1 M solution of ethanolamine (pH 8.5). Flow cell 1 (or 3) was used as a reference to subtract nonspecific binding, drift, and the bulk refractive index, while flow cell 2 (or 4) was further immobilized with glycol-peptide samples of varying structures. Biotinylated glycopeptides (20 nM) were dissolved in HBS-EP+ buffer and were injected to flow cell 2 (or 4) at 30 μL/min until the baseline response increased by 104 or 127 RU. The instrument was then primed using running buffer (HBS-EP+). NGF was dissolved in HBS-EP+ buffer to produce a 185 nM stock solution, which was serially diluted to produce a concentration series down to 11 nM. […] Flow cells were regenerated by 2.5 M MgCl2 at 30 μL/min for 30 seconds after injection of each protein solutions.
Surface plasmon resonance (SPR) technology was further employed to facilitate quantitative, real-time kinetic analysis of glycopeptide-NGF interaction. Streptavidin was coated on a carboxydextran CM5 sensor chip, using EDC/NHS coupling chemistry, at a relatively low density (≈700 RU) to prevent nonspecific interactions with NGF. Biotinylated glycopeptides were then immobilized on streptavidin-coated surface at normalized levels by molecular weights,^[12] […] Kinetics were monitored at 25° C. by injecting various concentrations of NGF (11-185 nM) over the surface for 240 s at 50 μL·min^−1 and recording the dissociation for 800 s before the surface was regenerated with 2.5 M solution of MgCl2. […] Further kinetic analysis was conducted using a two-state binding model for comprehensive understanding of this binding event.

[2] = molecular target: nerve growth factor (NGF) (Homo sapiens, UniProt P01138); test: ELISA of NGF binding to immobilized biotinylated glycopeptides
Chain of nerve growth factor (NGF) (P01138 122-241, species assumed): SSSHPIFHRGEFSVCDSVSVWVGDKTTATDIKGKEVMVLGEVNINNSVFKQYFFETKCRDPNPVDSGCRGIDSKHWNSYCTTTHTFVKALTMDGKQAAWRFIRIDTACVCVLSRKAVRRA
Procedure: The new plate was rinsed three times with PBS containing 0.05% Tween 20 and one time with PBS before the experiment. 100 μL of biotinylated glycopeptide solutions (0.5 μM) were added to required wells in the Pierce Streptavidin Coated High Binding Capacity plates (#15501), and incubated overnight at room temperature. After immobilization of glycopeptides, the plates were rinsed three times with PBS containing 0.05% Tween 20 and one time with PBS. The surface was then blocked with 125 μL of 3% BSA in PBS for 1 hr, followed by rinsing three times with PBS containing 0.05% Tween 20 and one time with PBS. 100 μL of varying concentrations (0 nM, 10 nM, 20 nM, 30 nM, 40 nM, 50 nM and 60 nM) of NGF in PBS containing 1% BSA was added to the wells and incubated for 2 hrs at 37° C. […]
The wells were then incubated with anti-NGF labeled with HRP in PBS containing 1% BSA. Absorbance signal was then developed with 100 μL of TMB Substrate from Thermo Scientific Pierce (#0034021) for 20 to 30 min before quenching with 100 μL of 2M H2SO4. Absorbance at 450 nm was then measured.
To evaluate the ability of the glycopeptides to interact with protein receptors, the binding affinity of each agent with nerve growth factor (NGF), which is known to bind CS-E sulfation motif selectively,^[9] was examined by ELISA. […] The amount of glycopeptide-bound NGF was measured by HRP-conjugated polyclonal NGF antibody.

[3] = test system: PC12 cells; conditions: for effect on NGF-mediated neurite outgrowth: NGF 4 ng/ml, glycopeptide 10 μM, 72 hr, compared to NGF-only control
Procedure: Rat pheochromocytoma (PC12) cells were maintained in T75 tissue culture flask in complete RPMI 1640 growth medium containing 10% heat-inactivated horse serum (HI-HS), 5% fetal bovine serum (FBS) and 1% penicillin/streptomycin. Stock cultures from liquid nitrogen were grown at 37° C. with 5% CO2 in a humidified chamber for 72 hr before experiments.
13 mm glass coverslips were submerged in 65% nitric acid for at least three days. The coverslips were washed with distilled water, 70% ethanol and 100% ethanol 3× each for 30 minutes with gentle rocking. The coverslips were dried in the cell culture hood overnight with UV sterilization. For coating, 60 μl of laminin solution (25 μg/ml in sterile PBS) was added to each coverslip, followed by 2 hr incubation at 37° C. The coverslips were rinsed 3× with PBS and dried in the hood before use.
PC12 cells were seeded on laminin-coated coverslips at a density of 100 cells/mm^2 in RPMI 1640 differentiation medium containing 1% HI-HS. Cells were allowed to attach to the surface for 1 hr at 37° C. The coverslips were transferred to 24-well plates and the cells were incubated with fresh differentiation medium for 1 hr. Glycopeptides were incubated with NGF in differentiation medium for 1 hr at room temperature before adding to the cells together. At the end of culture period, the cells were fixed with 4% formaldehyde solution for 15 minutes at room temperature and rinsed 2× with PBS. All experiments were repeated three times and done in duplicate each time. For each treatment, 400-500 randomly selected single cells were counted. The percentage of neurite-bearing cells was determined by counting the number of cells with neurite length at least one cell body long.

[4] = test system: TrkA; conditions: 10 μM glycopeptide 1 hr, NGF 4 ng/ml 5 minutes, ratio phospho-TrkA to total TrkA
Procedure: PC12 cells were seeded on laminin-coated coverslips at a density of 300 cells/mm^2 and one coverslip was used for each treatment (˜40,000 cells in total). Cells were starved in differentiation medium for 12-18 hr before use. For glycopeptide treatment, cells were incubated with fresh differentiation medium containing 10 μM glycopeptide for 1 hr at 37° C. To induce TrkA phosphorylation, cells were treated with NGF at a final concentration of 4 ng/ml for 5 minutes at 37° C. Cells were washed with ice cold PBS and lysed using RIPA lysis buffer containing protease and phosphatase inhibitors. The protein samples were separated on 4-12% SDS-PAGE gel and transferred to nitrocellulose membrane. Membranes were blocked for 1 h at room temperature and probed with anti-TrkA Ab (1:1500) and anti-pTrkA Ab (1:1500) overnight at 4° C., followed by 2 hr incubation with horseradish peroxidase-conjugated secondary antibodies. Enhanced chemiluminescence system was used for detection. The bands were quantified using the ImageJ program and the ratio of phosphor-TrkA to total TrkA was calculated and expressed as arbitrary units (a.u.).

Chain of NGF (P01138 122-241, species assumed): as above

| SMILES | ka2 [1] | kd1 [1] | kd2 [1] | ka1 [1] | binding to NGF (ELISA) ([2]; glycopeptide immobilized on streptavidin plate, NGF 0-60 nM, result in words) | effect on NGF-mediated neurite outgrowth [3] | binds to NGF more strongly than agent 1 (comparison of KD values) ([1]; KD of 5 versus KD of 1) | SPR overall response to NGF ([1]; compared with glycopeptide 1, result in words) | increase of NGF-induced TrkA phosphorylation compared to control [4] [%] | increase in NGF binding affinity in comparison to 1 (ELISA) ([2]; relative to glycopeptide 1) [fold] | percentage of neurite-bearing cells ([3]; 4 ng/ml NGF and 10 μM glycopeptide 3 days, 2 ng/ml NGF and 6 μM glycopeptide 5 days, result in words) | PC12 cell morphology with glycopeptide only ([3]; in the absence of NGF) |
| --- | --- | --- | --- | --- | --- | --- | --- | --- | --- | --- | --- | --- |
| COC(=O)[C@@H]1C[C@@H](n2cc(CO[C@@H]3O[C@H](COS(=O)(=O)O)[C@H](OS(=O)(=O)O)[C@H](O[C@@H]4O[C@H](C(=O)O)[C@@H](O)[C@H](O)[C@H]4O)[C@H]3NC(C)=O)nn2)CN1C(=O)[C@@H]1C[C@@H](n2cc(CO[C@@H]3O[C@H](COS(=O)(=O)O)[C@H](OS(=O)(=O)O)[C@H](O[C@@H]4O[C@H](C(=O)O)[C@@H](O)[C@H](O)[C@H]4O)[C@H]3NC(C)=O)nn2)CN1C(=O)[C@@H]1C[C@@H](n2cc(CO[C@@H]3O[C@H](COS(=O)(=O)O)[C@H](OS(=O)(=O)O)[C@H](O[C@@H]4O[C@H](C(=O)O)[C@@H](O)[C@H](O)[C@H]4O)[C@H]3NC(C)=O)nn2)CN1C(=O)[C@@H]1C[C@@H](n2cc(CO[C@@H]3O[C@H](COS(=O)(=O)O)[C@H](OS(=O)(=O)O)[C@H](O[C@@H]4O[C@H](C(=O)O)[C@@H](O)[C@H](O)[C@H]4O)[C@H]3NC(C)=O)nn2)CN1C(=O)[C@@H]1C[C@@H](n2cc(CO[C@@H]3O[C@H](COS(=O)(=O)O)[C@H](OS(=O)(=O)O)[C@H](O[C@@H]4O[C@H](C(=O)O)[C@@H](O)[C@H](O)[C@H]4O)[C@H]3NC(C)=O)nn2)CN1C(=O)[C@@H]1C[C@@H](n2cc(CO[C@@H]3O[C@H](COS(=O)(=O)O)[C@H](OS(=O)(=O)O)[C@H](O[C@@H]4O[C@H](C(=O)O)[C@@H](O)[C@H](O)[C@H]4O)[C@H]3NC(C)=O)nn2)CN1C(=O)[C@@H]1C[C@@H](n2cc(CO[C@@H]3O[C@H](COS(=O)(=O)O)[C@H](OS(=O)(=O)O)[C@H](O[C@@H]4O[C@H](C(=O)O)[C@@H](O)[C@H](O)[C@H]4O)[C@H]3NC(C)=O)nn2)CN1C(=O)[C@@H]1C[C@@H](n2cc(CO[C@@H]3O[C@H](COS(=O)(=O)O)[C@H](OS(=O)(=O)O)[C@H](O[C@@H]4O[C@H](C(=O)O)[C@@H](O)[C@H](O)[C@H]4O)[C@H]3NC(C)=O)nn2)CN1C(=O)[C@@H]1C[C@@H](n2cc(CO[C@@H]3O[C@H](COS(=O)(=O)O)[C@H](OS(=O)(=O)O)[C@H](O[C@@H]4O[C@H](C(=O)O)[C@@H](O)[C@H](O)[C@H]4O)[C@H]3NC(C)=O)nn2)CN1C(=O)[C@@H]1C[C@@H](n2cc(CO[C@@H]3O[C@H](COS(=O)(=O)O)[C@H](OS(=O)(=O)O)[C@H](O[C@@H]4O[C@H](C(=O)O)[C@@H](O)[C@H](O)[C@H]4O)[C@H]3NC(C)=O)nn2)CN1C(=O)[C@@H]1C[C@@H](n2cc(CO[C@@H]3O[C@H](COS(=O)(=O)O)[C@H](OS(=O)(=O)O)[C@H](O[C@@H]4O[C@H](C(=O)O)[C@@H](O)[C@H](O)[C@H]4O)[C@H]3NC(C)=O)nn2)CN1C(=O)[C@@H]1C[C@@H](n2cc(CO[C@@H]3O[C@H](COS(=O)(=O)O)[C@H](OS(=O)(=O)O)[C@H](O[C@@H]4O[C@H](C(=O)O)[C@@H](O)[C@H](O)[C@H]4O)[C@H]3NC(C)=O)nn2)CN1C(=O)CCOCCOCCOCCOCCOCCOCCOCCOCCOCCOCCOCCOCCNC(=O)CCCC[C@@H]1SC[C@@H]2NC(=O)N[C@@H]21 [Glycopeptide 1] | 3.62 (±0.04) × 10^−3 M^−1s^−1 | 3.22 (±0.07) × 10^−2 s^−1 | 6.43 (±0.13) × 10^−4 s^−1 | 1.95 (±0.39) × 10^3 M^−1s^−1 | moderate binding affinity | no effect | – | – | – | – | – | – |
| COC(=O)[C@@H]1C[C@@H](n2cc(CO[C@@H]3O[C@H](COS(=O)(=O)O)[C@H](OS(=O)(=O)O)[C@H](O[C@@H]4O[C@H](C(=O)O)[C@@H](O)[C@H](O)[C@H]4O)[C@H]3NC(C)=O)nn2)CN1C(=O)[C@@H]1CCCN1C(=O)[C@@H]1CCCN1C(=O)[C@@H]1C[C@@H](n2cc(CO[C@@H]3O[C@H](COS(=O)(=O)O)[C@H](OS(=O)(=O)O)[C@H](O[C@@H]4O[C@H](C(=O)O)[C@@H](O)[C@H](O)[C@H]4O)[C@H]3NC(C)=O)nn2)CN1C(=O)[C@@H]1CCCN1C(=O)[C@@H]1CCCN1C(=O)[C@@H]1C[C@@H](n2cc(CO[C@@H]3O[C@H](COS(=O)(=O)O)[C@H](OS(=O)(=O)O)[C@H](O[C@@H]4O[C@H](C(=O)O)[C@@H](O)[C@H](O)[C@H]4O)[C@H]3NC(C)=O)nn2)CN1C(=O)[C@@H]1CCCN1C(=O)[C@@H]1CCCN1C(=O)[C@@H]1C[C@@H](n2cc(CO[C@@H]3O[C@H](COS(=O)(=O)O)[C@H](OS(=O)(=O)O)[C@H](O[C@@H]4O[C@H](C(=O)O)[C@@H](O)[C@H](O)[C@H]4O)[C@H]3NC(C)=O)nn2)CN1C(=O)[C@@H]1CCCN1C(=O)[C@@H]1CCCN1C(=O)[C@@H]1C[C@@H](n2cc(CO[C@@H]3O[C@H](COS(=O)(=O)O)[C@H](OS(=O)(=O)O)[C@H](O[C@@H]4O[C@H](C(=O)O)[C@@H](O)[C@H](O)[C@H]4O)[C@H]3NC(C)=O)nn2)CN1C(=O)[C@@H]1CCCN1C(=O)[C@@H]1CCCN1C(=O)[C@@H]1C[C@@H](n2cc(CO[C@@H]3O[C@H](COS(=O)(=O)O)[C@H](OS(=O)(=O)O)[C@H](O[C@@H]4O[C@H](C(=O)O)[C@@H](O)[C@H](O)[C@H]4O)[C@H]3NC(C)=O)nn2)CN1C(=O)[C@@H]1CCCN1C(=O)[C@@H]1CCCN1C(=O)[C@@H]1C[C@@H](n2cc(CO[C@@H]3O[C@H](COS(=O)(=O)O)[C@H](OS(=O)(=O)O)[C@H](O[C@@H]4O[C@H](C(=O)O)[C@@H](O)[C@H](O)[C@H]4O)[C@H]3NC(C)=O)nn2)CN1C(=O)[C@@H]1CCCN1C(=O)[C@@H]1CCCN1C(=O)[C@@H]1C[C@@H](n2cc(CO[C@@H]3O[C@H](COS(=O)(=O)O)[C@H](OS(=O)(=O)O)[C@H](O[C@@H]4O[C@H](C(=O)O)[C@@H](O)[C@H](O)[C@H]4O)[C@H]3NC(C)=O)nn2)CN1C(=O)[C@@H]1CCCN1C(=O)[C@@H]1CCCN1C(=O)[C@@H]1C[C@@H](n2cc(CO[C@@H]3O[C@H](COS(=O)(=O)O)[C@H](OS(=O)(=O)O)[C@H](O[C@@H]4O[C@H](C(=O)O)[C@@H](O)[C@H](O)[C@H]4O)[C@H]3NC(C)=O)nn2)CN1C(=O)[C@@H]1CCCN1C(=O)[C@@H]1CCCN1C(=O)[C@@H]1C[C@@H](n2cc(CO[C@@H]3O[C@H](COS(=O)(=O)O)[C@H](OS(=O)(=O)O)[C@H](O[C@@H]4O[C@H](C(=O)O)[C@@H](O)[C@H](O)[C@H]4O)[C@H]3NC(C)=O)nn2)CN1C(=O)[C@@H]1CCCN1C(=O)[C@@H]1CCCN1C(=O)[C@@H]1C[C@@H](n2cc(CO[C@@H]3O[C@H](COS(=O)(=O)O)[C@H](OS(=O)(=O)O)[C@H](O[C@@H]4O[C@H](C(=O)O)[C@@H](O)[C@H](O)[C@H]4O)[C@H]3NC(C)=O)nn2)CN1C(=O)[C@@H]1CCCN1C(=O)[C@@H]1CCCN1C(=O)[C@@H]1C[C@@H](n2cc(CO[C@@H]3O[C@H](COS(=O)(=O)O)[C@H](OS(=O)(=O)O)[C@H](O[C@@H]4O[C@H](C(=O)O)[C@@H](O)[C@H](O)[C@H]4O)[C@H]3NC(C)=O)nn2)CN1C(=O)[C@@H]1CCCN1C(=O)[C@@H]1CCCN1C(=O)CCOCCOCCOCCOCCOCCOCCOCCOCCOCCOCCOCCOCCNC(=O)CCCC[C@@H]1SC[C@@H]2NC(=O)N[C@@H]21 [Glycopeptide 5] | 1.97 (±0.02) × 10^−3 M^−1s^−1 | 2.74 (±0.04) × 10^−2 s^−1 | 6.00 (±0.17) × 10^−4 s^−1 | 4.65 (±0.16) × 10^4 M^−1s^−1 | – | significantly promoted neurite outgrowth | approximately 18 fold | higher overall responses | ~40 | 4.6 | greatly increased | remained round-shaped and undifferentiated |
